Legend:
[1] = cited from earlier work; for chronic clopidogrel vs aspirin monotherapy: atherosclerosis, including MI within 35 days
[2] = Thorough QT study (QT/QTc interval, ECG); format: in vivo, human; conditions: for highest upper limit of 2-sided 90% CI for ΔΔQTcF: Day 1 and Day 4 postdose
Factor Xa = conditions: cited from earlier work
[3] = AXIOMATIC-SSP treatment discontinuation / completion; conditions: 200 mg BID, primarily due to AEs
Description: The study enrolled participants ≥40 years of age who had ischemic stroke or TIA. Ischemic stroke was defined as a neurological deficit attributable to a non-lacunar, acute brain infarction detected by neuroimaging and relevant to the clinical symptoms and National Institutes of Health Stroke Score (NIHSS)≤7 at the time of randomization. TIA was defined as acute onset neurological deficit attributable to focal ischemia of the brain by history or examination, with complete resolution of the deficit and no brain infarction on neuroimaging and ABCD score ≥6 or presence of motor symptoms. Evidence of relevant intracranial or cervical arterial atherosclerotic plaque, ulceration or thrombus in a feeding artery documented by imaging was required regardless of whether the index event was ischemic stroke or TIA, and all participants were required to have a Modified Rankin Score ≤3 before the index event. […] Following informed consent, participants received ASA 100 mg QD and a single loading dose of clopidogrel 300 mg if not already given as standard of care. […] A second MRI was performed on Day 90±6 days. All participants were required to remain on study treatment until the Day 90 MRI was performed up to Day 96.

[4] = AXIOMATIC-TKR Phase II trial; format: in vivo, human; conditions: 25 mg twice daily
Description: […]. […] (Weitz, et al., Milvexian for the Prevention of Venous Thromboembolism, N. Engl. […].

[5] = Population pharmacokinetic analysis of AXIOMATIC-SSP PK data; format: in vivo, human; conditions: 25 mg BID oral
[6] = Safety and tolerability of milvexian (thorough QT study / general); format: in vivo, human
Description: All 66 (100.0%) participants enrolled in the study received at least one entire dose of study intervention.

Factor XI = Factor XI clotting activity, AXIOMATIC-SSP; format: in vivo, human
Experimental: As used herein, “Factor XI Clotting Activity” is determined utilizing an aPTT-based 1-stage clotting time assay. Serial dilutions of normal pooled plasma are mixed with FXI-depleted plasma and the clotting times are measured according to standard aPTT protocol, to establish a reference range. Subject test plasma is treated in the same way and compared with the reference plasma.
In some embodiments, the Factor XI Clotting Activity is measured as follows: Factor XI (FXI) activity is measured using a modification of the activated partial thromboplastin time (aPTT) using Actin FS (Siemens Healthcare) on the Siemens BCS®XP analyzer. […]. The reference standard, at approximately 100%, is diluted by the BCS®XP analyzer in saline to generate pre-selected calibration levels of FXI. The calibration curve is plotted with FXI activity in percent (%) on the x-axis and clotting time in seconds on the y-axis. A log/lin regression curve fit is used. The samples to be tested are mixed with FXI deficient plasma (containing less than 1% FXI and at least 75% of all the other factors) to normalize all other factors. APTT reagent (Actin FS) is added and the mixture is incubated. Following incubation, calcium chloride is added to the mixture and the time to clot formation (measured optically) is compared to the time on the calibration curve. Samples are tested at the base dilution (1:10) prepared by the BCS®XP in saline. In other embodiments, formation of the fibrin clot is measured by mechanical methods (viscosity).
[…]. […] […].

[7] = phase III, ACS patients, in combination with dual antiplatelet therapy
[8] = 25 mg BID, Day 21 anytime, N=233
[9] = 25 mg BID, Day 90 anytime, N=223
[10] = dose of 25 mg, 50 mg, or 100 mg

COC(=O)[C@H](c1ccccc1Cl)N1CCc2sccc2C1 [clopidogrel]
chronic clopidogrel vs aspirin monotherapy [1]: comparable results

COc1c(N2C[C@@H]3CCCN[C@@H]3C2)c(F)cc2c(=O)c(C(=O)O)cn(C3CC3)c12 [moxifloxacin, reference compound]
participants with treatment-emergent change from baseline of QTcB>60 ms, number ([2]; following moxifloxacin): One
participants with treatment-emergent change from baseline of QTcB>60 ms, percent ([2]; following moxifloxacin): 1.7%
assay sensitivity (QTc, positive control) ([2]; single dose 400 mg moxifloxacin): Assay sensitivity for moxifloxacin was also demonstrated

O=C(NC[C@H]1CN(c2ccc(N3CCOCC3=O)cc2)C(=O)O1)c1ccc(Cl)s1 [rivaroxaban]
risk of death from cardiovascular causes, myocardial infarction, and stroke (Factor Xa; [7]): reduced the risk of death from cardiovascular causes, myocardial infarction, and stroke
risk of major bleeding (Factor Xa; [7]): increased the risk of major bleeding
bleeding risks (Factor Xa; post-ACS care): increased bleeding risks
cardiovascular events (Factor Xa; post-ACS care): reduced cardiovascular events
thrombin generation (Factor Xa; post-ACS care): decreased thrombin generation

CC(=O)Oc1ccccc1C(=O)O [aspirin]
chronic clopidogrel vs aspirin monotherapy [1]: comparable results
risk and severity of recurrent MACE ([1]; pooled randomized trials vs control, secondary prevention of ACS or chronic CAD): reduces the risk and severity of early and late recurrent MACE

C[C@@H]1CCC[C@H](n2cnc(-c3cc(Cl)ccc3-n3cc(Cl)nn3)cc2=O)c2cc(ccn2)-c2c(cnn2C(F)F)NC1=O [milvexian, (5R,9S)-9-(4-(5-chloro-2-(4-chloro-1H-1,2,3-triazol-1-yl)phenyl)-6-oxopyrimidin-1(6H)-yl)-2^1-(difluoromethyl)-5-methyl-2^1H-3-aza-1(4,2)-pyridina-2(5,4)-pyrazolacyclonaphan-4-one]
early treatment discontinuation rate [3]: 31.60%
efficacy compared with enoxaparin [4]: comparable efficacy to enoxaparin
safety profile compared with enoxaparin [4]: favorable safety profile
steady state mean (std) Cmax [5]: 346 (129) ng/mL
steady state mean (std) AUC0-24 ([5]; […]): 7290 (2940) ng*h/mL
safety and tolerability ([6]; administration according to the disclosure): generally safe and well tolerated
mean vital signs ([6]; whole study): no consistent or clinically relevant changes over time in mean vital signs
FXI Clotting Activity percent change from baseline, mean (Factor XI; 25 mg BID, Day 1 4 h, N=254): −7.21%
FXI Clotting Activity percent change from baseline, median (Factor XI; 25 mg BID, Day 1 4 h, N=254): −8.48%
FXI Clotting Activity value, median (Factor XI; 25 mg BID, Day 1 4 h, N=254): 100.0%
FXI Clotting Activity percent change from baseline, mean (Factor XI; 25 mg BID, Day 1 12 h, N=241): −6.89%
FXI Clotting Activity percent change from baseline, median (Factor XI; 25 mg BID, Day 1 12 h, N=241): −7.63%
FXI Clotting Activity percent change from baseline, mean (Factor XI; 25 mg BID, Day 1 24 h, N=253): −9.69%
FXI Clotting Activity percent change from baseline, median (Factor XI; 25 mg BID, Day 1 24 h, N=253): −11.30%
FXI Clotting Activity percent change from baseline, mean (Factor XI; [8]): −18.1%
FXI Clotting Activity percent change from baseline, median (Factor XI; [8]): −19.10%
FXI Clotting Activity percent change from baseline, mean (Factor XI; [9]): −17.7%
FXI Clotting Activity percent change from baseline, median (Factor XI; [9]): −20.16%
dose-response of Factor XI clotting activity (Factor XI; milvexian treated groups): dose-dependent decreases in the Factor XI clotting activity
upper limits of all 2-sided 90% CIs of time-matched differences vs placebo in changes from baseline in QTcF ([2]; 100 mg): below 10 ms
upper limits of 90% CI for ΔΔQTcF at milvexian Tmax ([2]; 100 mg twice daily): below 10 ms
upper bound of two-sided CI for largest ΔΔQTc (QTcF) ([2]; 100 mg twice daily as capsule): less than 10 milliseconds
highest upper limit of 2-sided 90% CI for ΔΔQTcF ([2]; 100 mg): 5.16 ms
upper limits of all 2-sided 90% CIs of time-matched differences vs placebo in changes from baseline in QTcF ([2]; 200 mg): below 10 ms
upper limits of 90% CI for ΔΔQTcF at milvexian Tmax ([2]; 200 mg twice daily): below 10 ms
upper bound of two-sided CI for largest ΔΔQTc (QTcF) ([2]; 200 mg twice daily as solution): less than 10 milliseconds
highest upper limit of 2-sided 90% CI for ΔΔQTcF ([2]; 200 mg): 4.57 ms
effect on QT interval (QTcF), ICH E14 ([2]; 100 and 200 mg): no effect of clinical or regulatory concern on the QT interval
effect on QT interval (study-specific and Bazett's correction), ICH E14 ([2]; 100 and 200 mg): no effect of clinical or regulatory concern on the QT interval
QTc interval prolongation [2, 10]: no clinically significant QTc interval prolongation
ΔΔQTc [2, 10]: less than 10 msec
evidence of QT/QTc interval prolongation, ICH E14 ([2]; therapeutic (100 mg) and supratherapeutic (200 mg)): does not show evidence of QT/QTc interval prolongation of clinical or regulatory concern
ECG abnormalities reported as TEAE ([2]; whole study): No ECG abnormalities were reported as TEAE
HR, RR interval, PR interval, QRS width ([2]; whole study): No consistent or clinically relevant changes over time were observed in HR, RR interval, PR interval, or QRS width
treatment-emergent QTcF or QTcB values >480 ms or changes >60 ms ([2]; whole study): No treatment-emergent actual values of QTcF or QTcB>480 ms or changes from baseline >60 ms were observed
treatment-emergent actual values of QTc>480 ms ([2]; whole study): No treatment-emergent actual values of QTc>480 ms were observed
treatment-emergent changes from baseline of QTcF or QTcP>60 ms ([2]; whole study): No treatment-emergent changes from baseline of QTcF or QTcP>60 ms were observed
